Consider two compounds from patent publication US20120009152A1, “NITRIC OXIDE DONORS FOR TREATMENT OF DISEASE AND INJURY” (priority 2002, published 2012).

Assay type in all cases: in vivo, rat
Test [1] concerns rats subjected to middle cerebral artery occlusion (MCAo). The test is described as follows: Neurologic Severity Scale (NSS) after MCAo, combination study. Conditions: treatment 1 day after stroke; NN 0.4 mg/kg IP, hMSCs 1×10^6 cells iv; vs control (PBS). On the procedure: (§1) Male Wistar rats (n=32) were subjected to middle cerebral artery occlusion (MCAo) and were randomized with 8 rats in four treatment groups, with treatment initiated 1 day after stroke. Groups included: 1) phosphate buffered saline (PBS); 2) subtherapeutic DETA-NONOate (NN) at a dose of 0.4 mg/kg (IP); 3) subtherapeutic hMSCs (1×10^6 cells-iv); and 4) combination subtherapeutic NN and hMSCs. Functional outcome measurements consisted of a Neurologic Severity Scale (18 point scale) (NSS) and the Adhesive Removal Test performed prior to stroke, immediately before treatment and at 7 and 14 days after treatment. […] However, there was an overall hMSC effect on NSS at 14 days.

For test [2] the test system is unchanged. Briefly: Volume of cerebral infarction after MCAo, combination study. Conditions: treatment 1 day after MCAo; NN 0.4 mg/kg IP, hMSCs 1×10^6 cells iv; no significant reduction vs PBS. On the procedure: as §1
No significant reduction of volume of ischemic damage was detected in rats with hMSC (30.7±6.2%) or NONOate ([…]) and combination hMSCs with NONOate (28.7±6.7%) treatment, compared with control rats subjected to MCAo with PBS ([…]), hMSCs were identified immunohistochemically using an antibody specific for human chromosomes (MAB1281). Within the brain tissue, cells derived from hMSCs were characterized by MAB1281 staining. No MAB1281 positive cells were found in the non-hMSCs treated rats. MSCs identified by MAB1281 survived and were distributed throughout the damaged brain of recipient rats. […] The vast majority of MAB1281 positive hMSCs were located in the ischemic boundary zone.

The subject of test [3] is BrdU immunoreactive cells in dentate gyrus, SVZ and OB. Briefly: Cell proliferation (BrdU) in non-ischemic young adult rats. The procedure:
The effects of an NO donor administered to normal young adult rats on the induction of cell proliferation within three regions of brain, the dentate gyrus, the olfactory bulb (OB) and the subventricular zone (SVZ) were tested. […] Young male Wister rats (3-4 month old) received 4 consecutive). I.V bolus doses of DETA/NONOate (0.1 mg/kg each, every 15 min, and total dose of 0.4 mg/kg) on the first experimental day and DETA/NONOate (0.4 mg/kg) was administered (i.p) daily for an additional 6 consecutive days. Rats that received saline were used as a control group. Bromodeoxyuridine (BrdU) was used as mitotic labeling to measure cell proliferation. Animals received daily i.p injections of BrdU (50 mg/kg, Sigma) on the first experimental day and subsequently for 14 consecutive days. Rats were sacrificed at 14 and 42 days after the treatment. BrdU immunoreactive nuclei were counted on a computer monitor to improve visualization and in one focal plane to avoid over-sampling. Structures were sampled either by selecting predetermined areas on each section (OB) or by analyzing entire structures on each section (SVZ and dentate gyrus) (Zhang et al., 2001). All BrdU immunoreactive-positive nuclei in these areas are presented as the number of the BrdU immunoreactive cells/mm^2. Density for the selected several sections was averaged to obtain a mean density value for each animal (Zhang et al., 2001).

Test [4] relates to rats subjected to embolic middle cerebral artery occlusion. Briefly: Foot-fault test after embolic MCA occlusion. The procedure:
Male Wistar rats weighing 320 to 380 g were used in the present study. The middle cerebral artery (MCA) was occluded by placement of an embolus at the origin of the MCA.
Ischemic rats (n=9) were treated with the same volume of tap water as a control group. Functional tests were performed and body weight was measured before ischemia and at 4, 7, 14, 21, and 28 days after onset of MCA occlusion. All rats were killed 28 days after MCA occlusion. […] These rats were killed 1 hour after the last treatment for measurements of brain levels of cGMP. […] Experiments were also performed to examine brain PDE5, nonischemic rats and ischemic rats were killed at 2, 4, 24, 48, and 168 hours after the onset of ischemia (n=3 for each time point). Reverse transcription (RT)-polymerase chain reaction (PCR) was performed to detect PDE5 in brain tissue.
Rats were tested for placement dysfunction of forelimbs with the modified foot-fault test before ischemia and at 4, 7, 14, 21, and 28 days after embolic ischemia. Rats were set on an elevated hexagonal grid of different sizes and placed their paws on the wire while moving along the grid. With each weight-bearing step, the paw may fall or slip between the wire. The total number of steps (movement of each forelimb) that the rat used to cross the grid was counted, and the total number of foot-faults for each forelimb was recorded.

Test [5] is described as follows: Animal body weight loss after embolic MCA occlusion. On the procedure: Male Wistar rats weighing 320 to 380 g were used in the present study. The middle cerebral artery (MCA) was occluded by placement of an embolus at the origin of the MCA. […] Ischemic rats (n=9) were treated with the same volume of tap water as a control group. Functional tests were performed and body weight was measured before ischemia and at 4, 7, 14, 21, and 28 days after onset of MCA occlusion. All rats were killed 28 days after MCA occlusion. […] These rats were killed 1 hour after the last treatment for measurements of brain levels of cGMP. […] Reverse transcription (RT)-polymerase chain reaction (PCR) was performed to detect PDE5 in brain tissue. Animals were weighed before and at 4, 7, 14, 21, and 28 days after embolic ischemia. Body weight loss is presented as a percentage of […] body weight.

[6] abbreviates: Sildenafil 2 mg/kg, 2 h group, Before Ischemia (baseline).
Where [7] appears, read: Sildenafil 2 mg/kg, 24 h group, Before Ischemia (baseline).
[8] abbreviates: Sildenafil 5 mg/kg, 2 h group, Before Ischemia (baseline).

SMILES strings stand for the structures.

Consider `NCCN(CCN)/[N+]([O-])=N/O` [DETANONOate, (Z)-1-[N-(2-aminoethyl)-N-(2-ammonioethyl)aminio]diazen-1-ium-1,2-diolate], for which the “NSS at 14 days” value in test [1] was “No significant difference”. Further, the “volume of ischemic damage” value in test [2] was 32.2±62%. Besides, the “numbers of BrdU reactive cells within the dentate gyrus, SVZ and OB” value in test [3] (non-ischemic young adult rats (3-4 month old), DETA/NONOate 0.4 mg/kg daily 7 days, 14 and 42 days, vs saline) is given as “Statistically significant increased”. In addition, the “newly generated cells within the dentate gyrus exhibiting neuronal markers NeuN and MAP2” value in test [3] (non-ischemic young adult rats administered DETA/NONO-ate) is listed as “More than 95%”.
Take `CCCc1nn(C)c2c(=O)[nH]c(-c3cc(S(=O)(=O)N4CCN(C)CC4)ccc3OCC)nc12` [Sildenafil]: the “% of Foot-Faults” value in test [4] (Sildenafil 2 mg/kg, 2 h, 4 d after ischemia) amounted to 22.81 ± 3.1%; in test [4] (Sildenafil 2 mg/kg, 2 h, 7 d), 15.2 ± 1.6 %; in test [4] (Sildenafil 2 mg/kg, 2 h, 14 d), 13.2 ± 1.2 %; in test [4] (Sildenafil 2 mg/kg, 2 h, 21 d), 9.1 ± 1.5 %; in test [4] (Sildenafil 2 mg/kg, 2 h, 28 d) it was 8.2 ± 1.4%; in test [4] (setting [6]) it was 1.1 ± 0.01%. The “% of Foot-Faults” value in test [4] (Sildenafil 2 mg/kg, 24 h, 4 d) amounted to 25.3 ± 3.8%; in test [4] (Sildenafil 2 mg/kg, 24 h, 7 d), 14.4 ± 1.0 %; in test [4] (Sildenafil 2 mg/kg, 24 h, 14 d) it was 10.0 ± 0.5 %; in test [4] (Sildenafil 2 mg/kg, 24 h, 21 d), 9.0 ± 0.5 %; in test [4] (Sildenafil 2 mg/kg, 24 h, 28 d), 5.3 ± 0.8 %; in test [4] (setting [7]), 1.03 ± 0.03%. For the same compound, the “% of Foot-Faults” value in test [4] (Sildenafil 5 mg/kg, 2 h, 4 d) was determined as 17.9 ± 2.9%; in test [4] (Sildenafil 5 mg/kg, 2 h, 7 d), 16.6 ± 1.4 %; in test [4] (Sildenafil 5 mg/kg, 2 h, 14 d) it was 14.6 ± 2.1 %; in test [4] (Sildenafil 5 mg/kg, 2 h, 21 d), 9.5 ± 1.6 %; in test [4] (Sildenafil 5 mg/kg, 2 h, 28 d), 7.6 ± 1.4%; in test [4] (setting [8]) it was 1.02 ± 0.02%. Further, the “% of Preischemic Body Weight” value in test [5] (Sildenafil 2 mg/kg, 2 h, 4 d) was found to be 81.8 ± 2.3%; in test [5] (Sildenafil 2 mg/kg, 2 h, 7 d), 86.6 ± 2.5 %; in test [5] (Sildenafil 2 mg/kg, 2 h, 14 d) it was 89.6 ± 4.7 %; in test [5] (Sildenafil 2 mg/kg, 2 h, 21 d), 98.2 ± 3.7 %; in test [5] (Sildenafil 2 mg/kg, 2 h, 28 d), 105.2 ± 3.0 %; in test [5] (setting [6]), 100%. Besides, the “% of Preischemic Body Weight” value stood at 86.9 ± 0.2% in test [5] (Sildenafil 2 mg/kg, 24 h, 4 d); 84.9 ± 1.8 % in test [5] (Sildenafil 2 mg/kg, 24 h, 7 d); 89.2 ± 2.6 % in test [5] (Sildenafil 2 mg/kg, 24 h, 14 d); 99.5 ± 2.0 % in test [5] (Sildenafil 2 mg/kg, 24 h, 21 d); 107.2 ± 2.5 % in test [5] (Sildenafil 2 mg/kg, 24 h, 28 d); 100% in test [5] (setting [7]). The “% of Preischemic Body Weight” value in test [5] (Sildenafil 5 mg/kg, 2 h, 4 d) is 84.6 ± 1.8%; in test [5] (Sildenafil 5 mg/kg, 2 h, 7 d) it was 81.8 ± 2.5 %; in test [5] (Sildenafil 5 mg/kg, 2 h, 14 d) it was 84.7 ± 3.9%; in test [5] (Sildenafil 5 mg/kg, 2 h, 21 d), 95.2 ± 3.5 %; in test [5] (Sildenafil 5 mg/kg, 2 h, 28 d), 101.3 ± 4.3%; in test [5] (setting [8]), 100%.
